Measured values reported in patent publication US5879657A, “Radiolabeled platelet GPIIb/IIIa receptor antagonists as imaging agents for the diagnosis of thromboembolic disorders” (The Dupont Merck Pharmaceutical Company, priority 1994, dated 1999).

Legend:
thrombus = test: Arteriovenous Shunt Model; type: in vivo, dogs; settings: mean ± SEM; for Arterial Conditions T/B ratio / Venous Conditions T/B ratio: T/B = thrombus/background; for Arterial Conditions Uptake (% id/g) / Venous Conditions Uptake (% id/g): extracorporeal A-V shunt, 1 hr shunt period
Procedure: Arteriovenous Shunt Model: Adult mongrel dogs of either sex (9-13 kg) were anesthetized with pentobarbital sodium (35 mg/kg, i.v.) and ventilated with room air via an endotracheal tube (12 strokes/min,25 ml/kg). For arterial pressure determination, the left carotid artery was cannulated with a saline-filled polyethylene catheter (PE-240) and connected to a Statham pressure transducer (P23ID; Oxnard, Calif.). Mean arterial blood pressure was determined via damping the pulsatile pressure signal. Heart rate was monitored using a cardiotachometer (Biotach, Grass Quincy, Ma.) triggered from a lead II electrocardiogram generated by limb leads. A jugular vein was cannulated (PE-240) for drug administration. The both femoral arteries and femoral veins were cannulated with silicon treated (Sigmacote, Sigma Chemical Co. St Louis, Mo.), saline filled polyethylene tubing (PE-200) and connected with a 5 cm section of silicon treated tubing (PE-240) to form an extracorporeal arterio-venous shunts (A-V). Shunt patency was monitored using a doppler flow system (model VF-1, Crystal Biotech Inc, Hopkinton, Ma.) and flow probe (2-2.3 mm, Titronics Med. Inst., Iowa City, Iowa) placed proximal to the locus of the shunt. All parameters were monitored continuously on a polygraph recorder (model 7D Grass) at a paper speed of […] or 25 mm/sec.
On completion of a 15 min post surgical stabilization period, an occlusive thrombus was formed by the introduction of a thrombogenic surface (4-0 braided silk thread, 5 cm in length, Ethicon Inc., Somerville, N.J.) into the shunt one shunt with the other serving as a control. Two consecutive 1 hr shunt periods were employed with the test agent administered as an infusion over 5 min beginning 5 min before insertion of the thrombogenic surface. At the end of each 1 hr shunt period the silk was carefully removed and weighed and the % incorporation determined via well counting. Thrombus weight was calculated by subtracting the weight of the silk prior to placement from the total weight of the silk on removal from the shunt. Arterial blood was withdrawn prior to the first shunt and every 30 min thereafter for determination of blood clearance, whole blood collagen-induced platelet aggregation, thrombin-induced platelet degranulation (platelet ATP release), prothrombin time and platelet count. Template bleeding time was also performed at 30 min intervals.

venous thrombus = test: Canine Deep Vein Thrombosis Model; type: in vivo, dogs; settings: 1 mCi/Kg, i.v., given at reflow; jugular vein thrombi; 15, 60 and 120 min post-administration
Procedure: Canine Deep Vein Thrombosis Model: This model incorporates the triad of events (hypercoagulatible state, period of stasis, low shear environment) essential for the formation of a venous fibrin-rich actively growing thrombus. The procedure was as follows: Adult mongrel dogs of either sex (9-13 kg) were anesthetized with pentobarbital sodium (35 mg/kg,i.v.) and ventilated with room air via an endotracheal tube (12 strokes/min, 25 ml/kg). For arterial pressure determination, the right femoral artery was cannulated with a saline-filled polyethylene catheter (PE-240) and connected to a Statham pressure transducer (P23ID; Oxnard, Calif.). Mean arterial blood pressure was determined via damping the pulsatile pressure signal. Heart rate was monitored using a cardiotachometer (Biotach, Grass Quincy, Ma.) triggered from a lead II electrocardiogram generated by limb leads. The right femoral vein was cannulated (PE-240) for drug administration. A 5 cm segment of both jugular veins was isolated, freed from fascia and circumscribed with silk suture. A microthermister probe was placed on the vessel which serves as an indirect measure of venous flow. […] The agent was infused during the first 5 min of reflow and the rate of incorporation monitored using gamma scintigraphy.

Substance	Arterial Conditions T/B ratio (thrombus)	Arterial Conditions Uptake (% id/g) (thrombus)	Venous Conditions T/B ratio (thrombus)	Venous Conditions Uptake (% id/g) (thrombus)	uptake in venous thrombus (typical images, gamma scintigraphy) (venous thrombus)
Cyclo-((^125 I)D-Tyr-NMeArg-Gly-Asp-Mamb) [Example 8]	173 ± 22	1.81 ± 0.18 % id/g	19 ± 9	0.25 ± 0.15 % id/g	
Cyclo-(D-Val-NMeArg-Gly-Asp-Mamb([^99m TcO(MA-MAMA)]-5-Aca)) [Example 32]	102	7.4 % id/g	0	0 % id/g	
Cyclo-(D-Val-NMeArg-Gly-Asp-Mamb([^99m TcO(MeMAG2 gaba)]^- -5-Aca)) [Example 23]	195 ± 39	5.41 ± 0.70 % id/g	7 ± 0.4	0.21 ± 0.05 % id/g	
Cyclo-(D-Val-NMeArg-Gly-Asp-Mamb([^99m TcO(mapt)]^- -5-Aca)) [Example 19]	142 ± 24	5.75 ± 1.28 % id/g	13 ± 4	0.58 ± 0.22 % id/g	uptake in a rapidly growing venous thrombus
Cyclo-([([^99m TcO(mapt)]^- -5-Aca)D-Lysσ-NMeArg-Gly-Asp-Mamb) [Example 21]	113 ± 1	1.6 ± 0.12 % id/g	4.0 ± 2	0.06 ± 0.03 % id/g	
Cyclo-([[^99m TcO(MeMAG2 gaba)]^- -D-Lys]-NMeArg-Gly-Asp-Mamb) [Example 22]	158 ± 5	1.28 ± 0.44 % id/g	7 ± 4	0.045 ± 0.02 % id/g	
Cyclo-([[^99m TcO(mapt)]^- -D-Lys]-NMeArg-Gly-Asp-Mamb) [Example 18]	147 ± 44	0.47 ± 0.12 % id/g	13 ± 3	0.04 ± .01 % id/g	
Cyclo-([^111 In-DTPA-D-Lys]-NMeArg-Gly-Asp-Mamb) [Example 16]	128 ± 24	0.95 ± 0.29 % id/g	14	0.08 % id/g	
[(^125 I)N-3-(4-hydroxyphenyl)propionyl]-Cyclo-(D-Lys-NMeArg-Gly-Asp-Mamb) [Example 9]	44 ± 4	2.60 ± .005 % id/g	8 ± 3	0.45 ± 0.11 % id/g	
^99m Tc((EDDA)-Cyclo(D-Val-NMeArg-Gly-Asp-Mamb(hydrazino-nicotinyl-5-Aca)) [Example 13]	163 ± 14	8.50 ± 0.20 % id/g	33 ± 27	1.64 ± 1.32 % id/g	
^99m Tc(tricine)2 -Cyclo(D-Val-NMeArg-Gly-Asp-Mamb(hydrazino-nicotinyl-5-Aca)) [Example 12]	111 ± 6	6.15 ± 0.66 % id/g	7.0 ± 2	0.46 ± 0.19 % id/g	uptake in a rapidly growing venous thrombus
^99m TcO(MAMA)-Cyclo-(D-Val-NMeArg-Gly-Asp-Mamb(5-Aca)) [Example 10]	221 ± 16	5.00 ± 0.51 % id/g	7 ± 0.6	0.16 ± 0.02 % id/g	
